In patent US8143244B2, “Cyclopropyl fused indolobenzazepine HCV NS5B inhibitors” (Bristol-Myers Squibb Company, priority 2009, dated 2012):

How the values were obtained:
HCV NS5B = target: T1, HCV NS5B (Hepatitis C virus genotype 1b, UniProt Q9WMX2); assay: HCV NS5B RdRp enzyme assay; assay type: biochemical; conditions: Table 1; HCV NS5B RdRp genotype 1b
T1 construct: The protein was expressed with an 18 amino acid C-terminal truncation to enhance the solubility; made in house; host or cells: E. coli BL21(DE3)
Description: HCV NS5B RdRp cloning, expression, and purification. The cDNA encoding the NS5B protein of HCV, genotype 1b, was cloned into the pET21a expression vector. The protein was expressed with an 18 amino acid C-terminal truncation to enhance the solubility. The E. coli competent cell line BL21(DE3) was used for expression of the protein. Cultures were grown at 37° C. for ˜4 hours until the cultures reached an optical density of 2.0 at 600 nm. The cultures were cooled to 20° C. and induced with 1 mM IPTG. Fresh ampicillin was added to a final concentration of 50 μg/ml and the cells were grown overnight at 20° C.
Cell pellets (3L) were lysed for purification to yield 15-24 mgs of purified NS5B. The lysis buffer consisted of 20 mM Tris-HCl, pH 7.4, 500 mM NaCl, 0.5% triton X-100, 1 mM DTT, 1 mM EDTA, 20% glycerol, 0.5 mg/ml lysozyme, 10 mM MgCl2, 15 ug/ml deoxyribonuclease I, and Complete TM protease inhibitor tablets (Roche). After addition of the lysis buffer, frozen cell pellets were resuspended using a tissue homogenizer. To reduce the viscosity of the sample, aliquots of the lysate were sonicated on ice using a microtip attached to a Branson sonicator. The sonicated lysate was centrifuged at 100,000×g for 1 hr at 4° C. and filtered through a 0.2 μm filter unit (Corning).
The protein was purified using three sequential chromatography steps: Heparin sepharose CL-6B, polyU sepharose 4B, and Hitrap SP sepharose (Pharmacia). The chromatography buffers were identical to the lysis buffer but contained no lysozyme, deoxyribonuclease I, MgCl2 or protease inhibitor and the NaCl concentration of the buffer was adjusted according to the requirements for charging the protein onto the column. Each column was eluted with a NaCl gradient which varied in length from 5-50 column volumes depending on the column type. After the final chromatography step, the resulting purity of the enzyme is >90% based on SDS-PAGE analysis. The enzyme was aliquoted and stored at −80° C.
Standard HCV NS5B RdRp enzyme assay. HCV RdRp genotype 1b assays were run in a final volume of 60 μl in 96 well plates (Costar 3912). The assay buffer is composed of 20 mM Hepes, pH 7.5, 2.5 mM KCl, 2.5 mM MgCl2, 1 mM DTT, 1.6 U RNAse inhibitor (Promega N2515), 0.1 mg/ml BSA (Promega R3961), and 2% glycerol. All compounds were serially diluted (3-fold) in DMSO and diluted further in water such that the final concentration of DMSO in the assay was 2%. HCV RdRp genotype 1b enzyme was used at a final concentration of 28 nM. A polyA template was used at 6 nM, and a biotinylated oligo-dT12 primer was used at 180 nM final concentration. Template was obtained commercially (Amersham 27-4110). Biotinylated primer was prepared by Sigma Genosys. 3H-UTP was used at 0.6 μCi (0.29 μM total UTP). Reactions were initiated by the addition of enzyme, incubated at 30° C. for 60 min, and stopped by adding 25 μl of 50 mM EDTA containing SPA beads (4 μg/μl, Amersham RPNQ 0007). Plates were read on a Packard Top Count NXT after >1 hr incubation at room temperature.
Modified HCV NS5B RdRp enzyme assay. A modified enzyme assay was performed essentially as described for the standard enzyme assay except for the following: The biotinylated oligo dT12 primer was precaptured on streptavidin-coated SPA beads by mixing primer and beads in assay buffer and incubating at room temperature for one hour. Unbound primer was removed after centrifugation. The primer-bound beads were resuspended in 20 mM Hepes buffer, pH 7.5 and used in the assay at final concentrations of 20 nM primer and 0.67 μg/μl beads. Order of addition in the assay: enzyme (14 nM) was added to diluted compound followed by the addition of a mixture of template (0.2 nM), 3H-UTP (0.6 μCi, 0.29 μM), and primer-bound beads, to initiate the reaction; concentrations given are final. Reactions were allowed to proceed for 4 hours at 30° C.
IC50 values for compounds were determined using seven different [I]. […]

HCV replicon = assay: HCV Replicon Luciferase Reporter Assay (LE Assay); assay type: cell-based, HCV genotype 1b; conditions: Hepatitis C virus, genotype 1b, Huh-7, read-out: LE NeoLuc EC50, Table 1, HUH-7 cells, genotype 1b replicon
Description: The HCV replicon luciferase assay was developed to monitor the inhibitory effects of compounds described in the disclosure on HCV viral replication. Utilization of a replicon luciferase reporter assay was first described by Krieger et al (Krieger N, Lohmann V, and Bartenschlager R, J. Virol. 75(10):4614-4624 (2001)). HUH-7 cells, constitutively expressing the HCV replicon, were grown in Dulbeccors Modified Eagle Media (DMEM) (Gibco-BRL) containing 10% Fetal calf serum (FCS) (Sigma) and 1 mg/ml G418 (Gibco-BRL). Compounds were serially diluted 3 folds in DMSO for a twenty-point titration and subsequently transferred to sterile 384-well tissue-culture treated plates (Coming cat #3571). The plates were then seeded with 50 μl of cells at a density of 3.0×10^3 cells/well in DMEM containing 4% FCS (final DMSO concentration at 0.5%). After 3 days incubation at 37° C., cells were analyzed for Renilla Luciferase activity using the EnduRen as substrate (Promega cat #E6485). The EnduRen substrate was diluted in DMEM and then added to the plates to a final concentration of 7.5 μM. The plates were incubated for 2 hrs at 37° C. and then read immediately for 30 seconds with Viewlux Imager (PerkinElmer) using a luminescence program. To assess cytotoxicity of compounds, CC50 values were generated by multiplexing the EnduRen-containing plates with Cell Titer-Blue (Promega, cat #G8082). 3 μl of Cell-Titer Blue was added to each well and incubated for 8 hrs at 37° C. The fluorescence signal from each well was read, with an excitation wavelength at 525/10 nm and an emission wavelength of 598/10 nm, using the Viewlux Imager.

T1 sequence (Q9WMX2 2420-2992): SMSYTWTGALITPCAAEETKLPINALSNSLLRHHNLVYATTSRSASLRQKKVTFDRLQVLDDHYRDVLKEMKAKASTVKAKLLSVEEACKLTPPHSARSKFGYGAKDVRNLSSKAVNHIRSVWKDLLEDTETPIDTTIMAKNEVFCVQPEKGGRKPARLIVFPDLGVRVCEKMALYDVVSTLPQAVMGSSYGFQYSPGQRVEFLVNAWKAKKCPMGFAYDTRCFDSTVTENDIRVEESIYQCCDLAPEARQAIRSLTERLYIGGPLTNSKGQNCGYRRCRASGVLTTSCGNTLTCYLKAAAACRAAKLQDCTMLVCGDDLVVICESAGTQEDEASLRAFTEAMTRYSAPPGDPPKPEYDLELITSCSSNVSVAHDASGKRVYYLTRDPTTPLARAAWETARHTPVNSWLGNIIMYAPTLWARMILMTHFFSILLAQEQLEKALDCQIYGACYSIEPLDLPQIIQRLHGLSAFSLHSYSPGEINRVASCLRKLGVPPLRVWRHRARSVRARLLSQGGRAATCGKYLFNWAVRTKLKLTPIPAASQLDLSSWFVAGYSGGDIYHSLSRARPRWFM

Structure (SMILES): C=C(C)S(=O)(=O)NC(=O)c1ccc2c(C3CCCCC3)c3n(c2c1)C[C@@]1(C(=O)N2CC45COCC4(CN(C)C5)C2)C[C@H]1c1cc(OC)ccc1-3 (stereo partly shown)
- IC50 (HCV NS5B): 0.0019 to 0.5 µM
- EC50 (HCV replicon): 0.0019 to 0.5 µM

Structure (SMILES): COc1ccc2c(c1)[C@@H]1C[C@]1(C(=O)N1CC34CNCC3(CN(C)C4)C1)Cn1c-2c(C2CCCCC2)c2ccc(C(=O)NS(=O)(=O)C(C)C)cc21 (stereo partly shown)
- IC50 (HCV NS5B): 0.0019 to 0.5 µM
- EC50 (HCV replicon): 0.5 to 1 µM

Structure (SMILES): COc1ccc2c(c1)C=C(C(=O)N1CC34CN(C)CC3(CN(C)C4)C1)Cn1c-2c(C2CCCCC2)c2ccc(C(=O)NS(=O)(=O)N(C)C)cc21 (stereo not shown)
- IC50 (HCV NS5B): 0.0019 to 0.5 µM
- EC50 (HCV replicon): 0.0019 to 0.5 µM

Structure (SMILES): COc1ccc2c(c1)C1CC1(C(=O)N1CC34CNCC3(CN(C)C4)C1)Cn1c-2c(C2CCCCC2)c2ccc(C(=O)NS(=O)(=O)N(C)C)cc21 (stereo not shown)
- IC50 (HCV NS5B): 0.0019 to 0.5 µM
- EC50 (HCV replicon): 0.0019 to 0.5 µM

Structure (SMILES): COc1ccc2c(c1)C1CC1(C(=O)N1CC34CN(C)CC3(CN(C)C4)C1)Cn1c-2c(C2CCCCC2)c2ccc(C(=O)NS(=O)(=O)N(C)C)cc21 (stereo not shown)
- IC50 (HCV NS5B): 0.0019 to 0.5 µM
- EC50 (HCV replicon): 0.0019 to 0.5 µM

Structure (SMILES): COc1ccc2c(c1)[C@@H]1C[C@]1(C(=O)N1CC34CN(C)CC3(CN(C)C4)C1)Cn1c-2c(C2CCCCC2)c2ccc(C(=O)NS(=O)(=O)C(C)C)cc21 (stereo partly shown)
- IC50 (HCV NS5B): 0.0019 to 0.5 µM
- EC50 (HCV replicon): 0.0019 to 0.5 µM

Structure (SMILES): COc1ccc2c(c1)[C@@H]1C[C@]1(C(=O)N1CC34CNCC3(COC4)C1)Cn1c-2c(C2CCCCC2)c2ccc(C(=O)NS(=O)(=O)C(C)C)cc21 (stereo partly shown)
- IC50 (HCV NS5B): 0.0019 to 0.5 µM
- EC50 (HCV replicon): 0.0019 to 0.5 µM

Structure (SMILES): COc1ccc2c(c1)[C@@H]1C[C@]1(C(=O)N1CC34COCC3(CN(C)C4)C1)Cn1c-2c(C2CCCCC2)c2ccc(C(=O)NS(=O)(=O)C(C)C)cc21 (stereo partly shown)
- IC50 (HCV NS5B): 0.0019 to 0.5 µM
- EC50 (HCV replicon): 0.0019 to 0.5 µM

Structure (SMILES): COc1ccc2c(c1)C1CC1(C(=O)N1CC34CNCC3(COC4)C1)Cn1c-2c(C2CCCCC2)c2ccc(C(=O)NS(=O)(=O)N(C)C)cc21 (stereo not shown)
- IC50 (HCV NS5B): 0.0019 to 0.5 µM
- EC50 (HCV replicon): 0.0019 to 0.5 µM

Structure (SMILES): COc1ccc2c(c1)C=C(C(=O)N1CC34CNCC3(COC4)C1)Cn1c-2c(C2CCCCC2)c2ccc(C(=O)NS(=O)(=O)N(C)C)cc21 (stereo not shown)
- IC50 (HCV NS5B): 0.0019 to 0.5 µM
- EC50 (HCV replicon): 0.0019 to 0.5 µM

Structure (SMILES): COc1ccc2c(c1)C=C(C(=O)N1CC34CNCC3(COC4)C1)Cn1c-2c(C2CCCCC2)c2ccc(C(=O)NS(=O)(=O)C3CC3)cc21 (stereo not shown)
- IC50 (HCV NS5B): 0.0019 to 0.5 µM
- EC50 (HCV replicon): 0.0019 to 0.5 µM

Structure (SMILES): COc1ccc2c(c1)C=C(C(=O)N1CC34COCC3(CN(C)C4)C1)Cn1c-2c(C2CCCCC2)c2ccc(C(=O)NS(=O)(=O)N(C)C)cc21 (stereo not shown)
- IC50 (HCV NS5B): 0.0019 to 0.5 µM
- EC50 (HCV replicon): 0.0019 to 0.5 µM

Structure (SMILES): COc1ccc2c(c1)C=C(C(=O)N1CC34COCC3(CN(C)C4)C1)Cn1c-2c(C2CCCCC2)c2ccc(C(=O)NS(=O)(=O)C3CC3)cc21 (stereo not shown)
- IC50 (HCV NS5B): 0.0019 to 0.5 µM
- EC50 (HCV replicon): 0.0019 to 0.5 µM

Structure (SMILES): CCN1CC23COCC2(C1)CN(C(=O)[C@]12C[C@H]1c1cc(OC)ccc1-c1c(C4CCCCC4)c4ccc(C(=O)NS(=O)(=O)C(C)C)cc4n1C2)C3 (stereo partly shown)
- IC50 (HCV NS5B): 0.0019 to 0.5 µM
- EC50 (HCV replicon): 0.0019 to 0.5 µM
